According to patent publication US9969694B2, “N-(arylalkyl)-N′-pyrazolyl-urea, thiourea, guanidine and cyanoguanidine compounds as TrkA kinase inhibitors” (Array BioPharma Inc., priority 2012, dated 2018):

Legend:
Experiment in all cases: Off-Target Kinase Profiling
Type in all cases: biochemical
Conditions in all cases: 10 μM; ATP near Km
AKT3 = biological target: T1, AKT3 (Homo sapiens, UniProt Q9Y243)
T1 construct: purchased Millipore (KinaseProfiler service)
Experimental: (§1) Representative compounds of the invention (Examples 33 and 10) were tested for off-target kinase activity at a concentration of 10 μM by Millipore, Inc. in their KinaseProfiler™ service against all the kinases available in their full kinase panel. Compounds were run in duplicate at a concentration of ATP near the Km for each individual kinase according to Millipore's specifications. The results are shown in Table B. Data are reported as percent of control (POC) and are the average of the two replicates.

AURKA = biological target: T2, AURKA (Homo sapiens, UniProt O14965)
T2 construct: purchased Millipore (KinaseProfiler service)
Experimental: as §1

Abl2 = biological target: T3, Abl2 (Homo sapiens, UniProt P42684)
T3 construct: purchased Millipore (KinaseProfiler service)
Experimental: as §1

Bmx = biological target: T4, Bmx (Homo sapiens, UniProt P51813)
T4 construct: purchased Millipore (KinaseProfiler service)
Experimental: as §1

BrSK1 = biological target: T5, BrSK1 (Homo sapiens, UniProt Q8TDC3)
T5 construct: purchased Millipore (KinaseProfiler service)
Experimental: as §1

CDK2/cyclinA = biological target: T6, CDK2/cyclinA (Homo sapiens, UniProt P24941)
T6 construct: purchased Millipore (KinaseProfiler service)
Experimental: as §1

CDK5/p25 = biological target: T7, CDK5/p25 (Homo sapiens, UniProt Q00535)
T7 construct: purchased Millipore, Inc. (KinaseProfiler service)
Experimental: as §1

CDK7/cyclinH/MAT1 = biological target: T8, CDK7/cyclinH/MAT1 (Homo sapiens, UniProt P50613)
T8 construct: purchased Millipore, Inc. (KinaseProfiler service)
Experimental: as §1

CDK9/cyclinT1 = biological target: T9, CDK9/cyclinT1 (Homo sapiens, UniProt P50750)
T9 construct: purchased Millipore, Inc. (KinaseProfiler service)
Experimental: as §1

CK2alpha2 = biological target: T10, CK2alpha2 (Homo sapiens, UniProt P19784)
T10 construct: purchased Millipore, Inc. (KinaseProfiler service)
Experimental: as §1

CLK3 = biological target: T11, CLK3 (Homo sapiens, UniProt P49761)
T11 construct: purchased Millipore, Inc. (KinaseProfiler service)
Experimental: as §1

CSK = biological target: T12, CSK (Homo sapiens, UniProt P41240)
T12 construct: purchased Millipore, Inc. (KinaseProfiler service)
Experimental: as §1

DAPK3 = biological target: T13, DAPK3 (Homo sapiens, UniProt O43293)
T13 construct: purchased Millipore, Inc. (KinaseProfiler service)
Experimental: as §1

ERK1 = biological target: T14, ERK1 (Homo sapiens, UniProt P27361)
T14 construct: purchased Millipore, Inc. (KinaseProfiler service)
Experimental: as §1

EphA1 = biological target: T15, EphA1 (Homo sapiens, UniProt P21709)
T15 construct: purchased Millipore, Inc. (KinaseProfiler service)
Experimental: as §1

EphA5 = biological target: T16, EphA5 (Homo sapiens, UniProt P54756)
T16 construct: purchased Millipore, Inc. (KinaseProfiler service)
Experimental: as §1

Fes = biological target: T17, Fes (Homo sapiens, UniProt P07332)
T17 construct: purchased Millipore, Inc. (KinaseProfiler service)
Experimental: as §1

GSK3alpha = biological target: T18, GSK3alpha (Homo sapiens, UniProt P49840)
T18 construct: purchased Millipore, Inc. (KinaseProfiler service)
Experimental: as §1

GSK3beta = biological target: T19, GSK3beta (Homo sapiens, UniProt P49841)
T19 construct: purchased Millipore, Inc. (KinaseProfiler service)
Experimental: as §1

HIPK1 = biological target: T20, HIPK1 (Homo sapiens, UniProt Q86Z02)
T20 construct: purchased Millipore, Inc. (KinaseProfiler service)
Experimental: as §1

IGF-1R Activated = biological target: T21, IGF-1R Activated (Homo sapiens, UniProt P08069)
T21 construct: purchased Millipore, Inc. (KinaseProfiler service)
Experimental: as §1

IRAK4 = biological target: T22, IRAK4 (Homo sapiens, UniProt Q9NWZ3)
T22 construct: purchased Millipore, Inc. (KinaseProfiler service)
Experimental: as §1

JAK3 = biological target: T23, JAK3 (Homo sapiens, UniProt P52333)
T23 construct: purchased Millipore, Inc. (KinaseProfiler service)
Experimental: as §1

JNK1alpha1 = biological target: T24, JNK1alpha1 (Homo sapiens, UniProt P45983)
T24 construct: purchased Millipore, Inc. (KinaseProfiler service)
Experimental: as §1

LKB1 = biological target: T25, LKB1 (Homo sapiens, UniProt Q15831)
T25 construct: purchased Millipore, Inc. (KinaseProfiler service)
Experimental: as §1

MELK = biological target: T26, MELK (Homo sapiens, UniProt Q14680)
T26 construct: purchased Millipore, Inc. (KinaseProfiler service)
Experimental: as §1

MKK7beta = biological target: T27, MKK7beta (Homo sapiens, UniProt O14733)
T27 construct: purchased Millipore, Inc. (KinaseProfiler service)
Experimental: as §1

Mer = biological target: T28, Mer (Homo sapiens, UniProt Q12866)
T28 construct: purchased Millipore, Inc. (KinaseProfiler service)
Experimental: as §1

PAK2 = biological target: T29, PAK2 (Homo sapiens, UniProt Q13177)
T29 construct: purchased Millipore, Inc. (KinaseProfiler service)
Experimental: as §1

PDK1 = biological target: T30, PDK1 (Homo sapiens, UniProt O15530)
T30 construct: purchased Millipore, Inc. (KinaseProfiler service)
Experimental: as §1

PKCeta = biological target: T31, PKCeta (Homo sapiens, UniProt P24723)
T31 construct: purchased Millipore, Inc. (KinaseProfiler service)
Experimental: as §1

PKCtheta = biological target: T32, PKCtheta (Homo sapiens, UniProt Q04759)
T32 construct: purchased Millipore, Inc. (KinaseProfiler service)
Experimental: as §1

PhKgamma2 = biological target: T33, PhKgamma2 (Homo sapiens, UniProt P15735)
T33 construct: purchased Millipore, Inc. (KinaseProfiler service)
Experimental: as §1

Pim-1 = biological target: T34, Pim-1 (Homo sapiens, UniProt P11309)
T34 construct: purchased Millipore, Inc. (KinaseProfiler service)
Experimental: as §1

Pim-3 = biological target: T35, Pim-3 (Homo sapiens, UniProt Q86V86)
T35 construct: purchased Millipore, Inc. (KinaseProfiler service)
Experimental: as §1

Rsk4 = biological target: T36, Rsk4 (Homo sapiens, UniProt Q9UK32)
T36 construct: purchased Millipore, Inc. (KinaseProfiler service)
Experimental: as §1

SGK1 = biological target: T37, SGK1 (Homo sapiens, UniProt O00141)
T37 construct: purchased Millipore, Inc. (KinaseProfiler service)
Experimental: as §1

Tie2 = biological target: T38, Tie2 (Homo sapiens, UniProt Q02763)
T38 construct: purchased Millipore, Inc. (KinaseProfiler service)
Experimental: as §1

ZAP-70 = biological target: T39, ZAP-70 (Homo sapiens, UniProt P43403)
T39 construct: purchased Millipore, Inc. (KinaseProfiler service)
Experimental: as §1

eEF-2K = biological target: T40, eEF-2K (Homo sapiens, UniProt O00418)
T40 construct: purchased Millipore, Inc. (KinaseProfiler service)
Experimental: as §1

p38alpha = biological target: T41, p38alpha (Homo sapiens, UniProt Q16539)
T41 construct: purchased Millipore, Inc. (KinaseProfiler service)
Experimental: as §1

T25 sequence (Q15831 whole entry): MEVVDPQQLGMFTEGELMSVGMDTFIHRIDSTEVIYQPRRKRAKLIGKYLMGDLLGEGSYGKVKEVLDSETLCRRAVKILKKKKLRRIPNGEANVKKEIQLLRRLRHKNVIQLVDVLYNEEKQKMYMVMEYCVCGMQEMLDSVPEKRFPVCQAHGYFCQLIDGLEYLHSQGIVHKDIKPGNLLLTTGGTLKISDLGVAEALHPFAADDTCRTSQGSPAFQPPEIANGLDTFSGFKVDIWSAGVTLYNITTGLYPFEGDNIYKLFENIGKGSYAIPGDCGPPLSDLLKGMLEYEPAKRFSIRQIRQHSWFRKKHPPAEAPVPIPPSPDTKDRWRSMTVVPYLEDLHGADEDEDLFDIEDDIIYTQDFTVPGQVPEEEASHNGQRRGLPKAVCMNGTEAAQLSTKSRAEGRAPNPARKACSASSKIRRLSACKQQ
T25 sequence (Q7RTN6 whole entry partner): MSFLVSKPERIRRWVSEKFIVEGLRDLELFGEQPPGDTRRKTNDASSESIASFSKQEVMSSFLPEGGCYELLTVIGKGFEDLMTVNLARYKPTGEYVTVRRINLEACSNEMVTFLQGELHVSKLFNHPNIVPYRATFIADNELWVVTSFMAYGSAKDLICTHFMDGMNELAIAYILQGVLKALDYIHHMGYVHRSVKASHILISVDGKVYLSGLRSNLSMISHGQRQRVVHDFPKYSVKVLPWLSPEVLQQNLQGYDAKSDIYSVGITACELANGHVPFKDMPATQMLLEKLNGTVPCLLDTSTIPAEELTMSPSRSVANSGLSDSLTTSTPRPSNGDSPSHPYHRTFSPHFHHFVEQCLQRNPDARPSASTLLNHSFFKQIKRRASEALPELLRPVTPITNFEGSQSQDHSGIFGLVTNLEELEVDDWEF
T25 sequence (Q9Y376 whole entry partner): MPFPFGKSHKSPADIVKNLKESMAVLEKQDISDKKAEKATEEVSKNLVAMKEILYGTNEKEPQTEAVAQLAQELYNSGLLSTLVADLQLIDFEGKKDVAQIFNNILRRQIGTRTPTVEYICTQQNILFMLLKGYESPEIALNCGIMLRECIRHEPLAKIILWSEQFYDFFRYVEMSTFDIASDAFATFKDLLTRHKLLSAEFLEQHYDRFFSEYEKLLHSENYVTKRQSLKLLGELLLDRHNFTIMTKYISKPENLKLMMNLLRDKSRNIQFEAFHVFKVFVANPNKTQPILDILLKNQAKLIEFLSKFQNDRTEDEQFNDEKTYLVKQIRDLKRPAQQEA
T3 sequence (P42684 whole entry): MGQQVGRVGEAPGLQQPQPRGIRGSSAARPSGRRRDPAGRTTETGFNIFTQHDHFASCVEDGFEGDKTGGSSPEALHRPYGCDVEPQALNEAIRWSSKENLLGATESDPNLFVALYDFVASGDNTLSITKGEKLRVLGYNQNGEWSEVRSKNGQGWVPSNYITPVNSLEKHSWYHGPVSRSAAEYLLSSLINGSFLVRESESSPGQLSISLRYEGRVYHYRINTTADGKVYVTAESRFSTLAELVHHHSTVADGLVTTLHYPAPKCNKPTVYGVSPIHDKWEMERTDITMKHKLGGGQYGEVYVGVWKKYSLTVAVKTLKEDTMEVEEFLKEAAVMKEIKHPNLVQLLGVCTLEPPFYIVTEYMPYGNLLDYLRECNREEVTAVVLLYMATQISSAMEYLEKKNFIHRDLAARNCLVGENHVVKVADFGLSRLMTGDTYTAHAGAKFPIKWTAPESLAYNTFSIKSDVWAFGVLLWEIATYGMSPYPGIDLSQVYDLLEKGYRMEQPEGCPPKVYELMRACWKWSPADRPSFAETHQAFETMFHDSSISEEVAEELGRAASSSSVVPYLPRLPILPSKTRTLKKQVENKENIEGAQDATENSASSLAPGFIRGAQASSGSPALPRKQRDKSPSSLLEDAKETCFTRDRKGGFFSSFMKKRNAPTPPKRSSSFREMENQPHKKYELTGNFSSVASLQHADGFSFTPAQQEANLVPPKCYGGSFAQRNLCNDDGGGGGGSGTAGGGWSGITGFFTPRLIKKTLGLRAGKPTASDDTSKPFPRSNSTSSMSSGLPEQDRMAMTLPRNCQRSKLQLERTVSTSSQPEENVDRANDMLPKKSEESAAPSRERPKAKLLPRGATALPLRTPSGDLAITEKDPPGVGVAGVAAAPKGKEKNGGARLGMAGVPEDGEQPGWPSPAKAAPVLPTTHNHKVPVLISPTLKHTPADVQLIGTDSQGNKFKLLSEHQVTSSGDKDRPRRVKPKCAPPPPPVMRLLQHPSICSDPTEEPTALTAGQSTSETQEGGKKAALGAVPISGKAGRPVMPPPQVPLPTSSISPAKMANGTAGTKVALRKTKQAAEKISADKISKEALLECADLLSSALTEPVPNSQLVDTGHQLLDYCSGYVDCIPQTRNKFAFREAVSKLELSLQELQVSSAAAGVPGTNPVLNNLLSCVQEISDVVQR
T8 sequence (P50613 whole entry): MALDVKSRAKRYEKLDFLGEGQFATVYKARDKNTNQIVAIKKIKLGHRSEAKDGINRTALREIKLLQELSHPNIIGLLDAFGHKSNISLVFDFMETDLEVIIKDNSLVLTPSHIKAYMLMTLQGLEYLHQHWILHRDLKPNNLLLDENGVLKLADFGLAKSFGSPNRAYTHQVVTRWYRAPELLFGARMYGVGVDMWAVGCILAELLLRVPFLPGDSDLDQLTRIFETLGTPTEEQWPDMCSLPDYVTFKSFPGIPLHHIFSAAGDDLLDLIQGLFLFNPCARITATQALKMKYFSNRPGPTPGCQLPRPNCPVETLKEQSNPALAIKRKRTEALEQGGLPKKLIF
T8 sequence (P51946 whole entry partner): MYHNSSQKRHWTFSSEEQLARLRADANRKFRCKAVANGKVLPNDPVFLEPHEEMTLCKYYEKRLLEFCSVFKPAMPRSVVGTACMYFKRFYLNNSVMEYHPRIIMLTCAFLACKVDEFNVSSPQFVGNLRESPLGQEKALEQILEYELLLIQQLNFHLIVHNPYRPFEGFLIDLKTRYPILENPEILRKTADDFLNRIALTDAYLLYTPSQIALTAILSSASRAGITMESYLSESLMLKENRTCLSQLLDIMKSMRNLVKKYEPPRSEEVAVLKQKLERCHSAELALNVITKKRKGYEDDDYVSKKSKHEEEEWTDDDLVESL
T8 sequence (P51948 whole entry partner): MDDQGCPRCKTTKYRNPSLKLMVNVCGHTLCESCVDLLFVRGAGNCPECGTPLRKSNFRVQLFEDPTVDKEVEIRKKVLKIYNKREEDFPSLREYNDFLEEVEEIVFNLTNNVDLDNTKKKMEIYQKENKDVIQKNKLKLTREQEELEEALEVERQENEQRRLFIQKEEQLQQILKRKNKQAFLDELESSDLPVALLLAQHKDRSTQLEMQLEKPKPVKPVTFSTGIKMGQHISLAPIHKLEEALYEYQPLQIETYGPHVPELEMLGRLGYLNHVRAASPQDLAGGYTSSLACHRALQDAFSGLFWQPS
T19 sequence (P49841 whole entry): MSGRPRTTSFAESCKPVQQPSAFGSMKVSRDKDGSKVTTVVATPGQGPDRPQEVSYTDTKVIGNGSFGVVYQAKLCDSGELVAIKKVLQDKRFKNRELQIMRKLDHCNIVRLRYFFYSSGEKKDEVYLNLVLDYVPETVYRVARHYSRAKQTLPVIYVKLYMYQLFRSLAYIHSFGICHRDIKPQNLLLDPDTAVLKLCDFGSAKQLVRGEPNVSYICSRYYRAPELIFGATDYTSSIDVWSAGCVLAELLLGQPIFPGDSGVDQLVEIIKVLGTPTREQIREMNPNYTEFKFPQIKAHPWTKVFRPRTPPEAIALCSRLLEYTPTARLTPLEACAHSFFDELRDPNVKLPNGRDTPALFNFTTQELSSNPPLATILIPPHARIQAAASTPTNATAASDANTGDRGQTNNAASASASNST
T20 sequence (Q86Z02 whole entry): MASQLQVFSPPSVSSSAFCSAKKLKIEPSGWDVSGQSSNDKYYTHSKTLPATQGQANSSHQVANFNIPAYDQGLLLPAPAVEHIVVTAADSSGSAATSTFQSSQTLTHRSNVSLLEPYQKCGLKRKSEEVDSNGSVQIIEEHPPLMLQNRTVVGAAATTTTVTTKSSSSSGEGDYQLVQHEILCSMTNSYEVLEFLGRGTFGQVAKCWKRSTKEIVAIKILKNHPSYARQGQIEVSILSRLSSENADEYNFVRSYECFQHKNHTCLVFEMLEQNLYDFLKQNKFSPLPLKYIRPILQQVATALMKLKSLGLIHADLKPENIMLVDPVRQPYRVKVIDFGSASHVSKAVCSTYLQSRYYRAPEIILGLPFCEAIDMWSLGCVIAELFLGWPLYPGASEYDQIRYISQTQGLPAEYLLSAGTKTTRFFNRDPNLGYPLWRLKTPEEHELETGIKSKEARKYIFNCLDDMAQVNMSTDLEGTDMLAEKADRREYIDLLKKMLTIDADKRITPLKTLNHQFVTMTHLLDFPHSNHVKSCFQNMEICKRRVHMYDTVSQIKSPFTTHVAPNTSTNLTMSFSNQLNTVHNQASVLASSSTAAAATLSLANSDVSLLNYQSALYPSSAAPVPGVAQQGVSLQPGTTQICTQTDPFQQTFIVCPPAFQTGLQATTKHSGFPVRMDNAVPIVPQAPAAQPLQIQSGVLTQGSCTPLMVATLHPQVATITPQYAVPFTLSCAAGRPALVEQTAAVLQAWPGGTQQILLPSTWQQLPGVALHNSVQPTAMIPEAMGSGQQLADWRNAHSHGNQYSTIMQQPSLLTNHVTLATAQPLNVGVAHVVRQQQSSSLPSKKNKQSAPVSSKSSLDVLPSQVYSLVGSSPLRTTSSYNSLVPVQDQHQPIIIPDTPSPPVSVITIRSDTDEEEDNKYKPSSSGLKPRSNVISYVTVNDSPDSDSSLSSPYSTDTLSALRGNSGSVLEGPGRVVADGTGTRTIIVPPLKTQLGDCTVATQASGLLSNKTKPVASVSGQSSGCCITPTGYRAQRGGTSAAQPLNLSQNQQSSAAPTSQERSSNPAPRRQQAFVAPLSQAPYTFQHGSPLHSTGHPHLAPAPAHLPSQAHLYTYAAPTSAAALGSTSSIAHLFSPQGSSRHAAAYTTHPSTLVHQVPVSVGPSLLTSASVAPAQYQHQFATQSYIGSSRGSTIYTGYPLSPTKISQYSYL

In the case of `COCc1ccc(C(F)(F)F)c(CNC(=O)Nc2c(C)c(-c3cnn(C)c3)nn2-c2ccccc2)c1` [Example 33, 1-(1′,4-dimethyl-1-phenyl-1H,1′H-[3,4′-bipyrazol]-5-yl)-3-(5-(methoxymethyl)-2-(trifluoromethyl)benzyl)urea], the “Avg POC AKT3” value (AKT3) is reported as 124 POC, the “Avg POC AURKA” value (AURKA) is reported as 112 POC and the “Avg POC Abl2” value (Abl2) is reported as 139.5 POC. For the same compound, the “Avg POC Bmx” value (Bmx) was 127.5 POC, the “Avg POC BrSK1” value (BrSK1) was 119 POC and the “Avg POC CDK2/cyclinA” value (CDK2/cyclinA) was 103.5 POC. For the same compound, the “Avg POC CDK5/p25” value (CDK5/p25) was 100.5 POC, the “Avg POC CDK7/cyclinH/MAT1” value (CDK7/cyclinH/MAT1) was 113.5 POC and the “Avg POC CDK9/cyclinT1” value (CDK9/cyclinT1) was 108 POC. For the same compound, the “Avg POC CK2alpha2” value (CK2alpha2) was 99.5 POC, the “Avg POC CLK3” value (CLK3) was 102 POC and the “Avg POC CSK” value (CSK) was 127.5 POC. The “Avg POC DAPK3” value (DAPK3) was 113 POC, the “Avg POC ERK1” value (ERK1) was 95.5 POC and the “Avg POC EphA1” value (EphA1) was 90 POC. The “Avg POC EphA5” value (EphA5) was 123 POC, the “Avg POC Fes” value (Fes) was 109 POC and the “Avg POC GSK3alpha” value (GSK3alpha) was 161 POC. For the same compound, the “Avg POC GSK3beta” value (GSK3beta) was 136.5 POC, the “Avg POC HIPK1” value (HIPK1) was 115.5 POC and the “Avg POC IGF-1R Activated” value (IGF-1R Activated) was 86.5 POC. The “Avg POC IRAK4” value (IRAK4) was 109.5 POC, the “Avg POC JAK3” value (JAK3) was 114 POC and the “Avg POC JNK1alpha1” value (JNK1alpha1) was 103 POC. The “Avg POC LKB1” value (LKB1) was 90 POC, the “Avg POC MELK” value (MELK) was 114 POC and the “Avg POC MKK7beta” value (MKK7beta) was 159 POC. For the same compound, the “Avg POC Mer” value (Mer) was 96.5 POC, the “Avg POC PAK2” value (PAK2) was 89.5 POC and the “Avg POC PDK1” value (PDK1) was 126.5 POC. The “Avg POC PKCeta” value (PKCeta) was 98 POC, the “Avg POC PKCtheta” value (PKCtheta) was 112.5 POC and the “Avg POC PhKgamma2” value (PhKgamma2) was 116 POC. For the same compound, the “Avg POC Pim-1” value (Pim-1) was 138 POC, the “Avg POC Pim-3” value (Pim-3) was 103 POC and the “Avg POC Rsk4” value (Rsk4) was 95 POC. For the same compound, the “Avg POC SGK1” value (SGK1) was 279 POC, the “Avg POC Tie2” value (Tie2) was 137.5 POC and the “Avg POC ZAP-70” value (ZAP-70) was 149 POC. For the same compound, the “Avg POC eEF-2K” value (eEF-2K) was 169.5 POC and the “Avg POC p38alpha” value (p38alpha) was 88.5 POC.
`COCc1ccc(C2CCC2)c(CNC(=O)Nc2c(C)c(-c3cnc(C)nc3)nn2-c2ccccc2)c1` [Example 10, 1-(2-cyclobutyl-5-(methoxymethyl)benzyl)-3-(4-methyl-3-(2-methylpyrimidin-5-yl)-1-phenyl-1H-pyrazol-5-yl)urea] was tested, and the “Avg POC AKT3” value (AKT3) was 102.5 POC, the “Avg POC AURKA” value (AURKA) was 90 POC and the “Avg POC Abl2” value (Abl2) was 95 POC. For the same compound, the “Avg POC Bmx” value (Bmx) was 100 POC, the “Avg POC BrSK1” value (BrSK1) was 86.5 POC and the “Avg POC CDK2/cyclinA” value (CDK2/cyclinA) was 98.5 POC. The “Avg POC CDK5/p25” value (CDK5/p25) was 107.5 POC, the “Avg POC CDK7/cyclinH/MAT1” value (CDK7/cyclinH/MAT1) was 96.5 POC and the “Avg POC CDK9/cyclinT1” value (CDK9/cyclinT1) was 98 POC. For the same compound, the “Avg POC CK2alpha2” value (CK2alpha2) was 109 POC, the “Avg POC CLK3” value (CLK3) was 104.5 POC and the “Avg POC CSK” value (CSK) was 132 POC. The “Avg POC DAPK3” value (DAPK3) was 93.5 POC, the “Avg POC ERK1” value (ERK1) was 89.5 POC and the “Avg POC EphA1” value (EphA1) was 98 POC. The “Avg POC EphA5” value (EphA5) was 114 POC, the “Avg POC Fes” value (Fes) was 90 POC and the “Avg POC GSK3alpha” value (GSK3alpha) was 105 POC. For the same compound, the “Avg POC GSK3beta” value (GSK3beta) was 115 POC, the “Avg POC HIPK1” value (HIPK1) was 100.5 POC and the “Avg POC IGF-1R Activated” value (IGF-1R Activated) was 93.5 POC. The “Avg POC IRAK4” value (IRAK4) was 122.5 POC, the “Avg POC JAK3” value (JAK3) was 94.5 POC and the “Avg POC JNK1alpha1” value (JNK1alpha1) was 98 POC. The “Avg POC LKB1” value (LKB1) was 89.5 POC, the “Avg POC MELK” value (MELK) was 83.5 POC and the “Avg POC MKK7beta” value (MKK7beta) was 132.5 POC. For the same compound, the “Avg POC Mer” value (Mer) was 87.5 POC, the “Avg POC PAK2” value (PAK2) was 88 POC and the “Avg POC PDK1” value (PDK1) was 120.5 POC. For the same compound, the “Avg POC PKCeta” value (PKCeta) was 86.5 POC, the “Avg POC PKCtheta” value (PKCtheta) was 94 POC and the “Avg POC PhKgamma2” value (PhKgamma2) was 118 POC. For the same compound, the “Avg POC Pim-1” value (Pim-1) was 101.5 POC, the “Avg POC Pim-3” value (Pim-3) was 105.5 POC and the “Avg POC Rsk4” value (Rsk4) was 87 POC. The “Avg POC SGK1” value (SGK1) was 96 POC, the “Avg POC Tie2” value (Tie2) was 81.5 POC and the “Avg POC ZAP-70” value (ZAP-70) was 120.5 POC. The “Avg POC eEF-2K” value (eEF-2K) was 109.5 POC and the “Avg POC p38alpha” value (p38alpha) was 91.5 POC.
